Measured values published in EP4685142A1, “TRIAZINE COMPOUND AND USE THEREOF” (Chengdu Zenitar Biomedical Technology Co., Ltd., priority 2023, dated 2024).
Read-outs that look alike come from different tables or passages of the source.

Key:
NLRP3 inflammasome = molecular target: T1, NLRP3 inflammasome (Homo sapiens, UniProt Q96P20); assay: Inhibitory activity of NLRP3 inflammasome in human monocytes (THP-1 cells, LPS + Nigericin, IL-1β ELISA); type: cell-based
T1 construct: host or cells: THP-1 cells
Summary of the method: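 THP-1 cells differentiated overnight with 10 µM PMA at 37°C and 5% CO2, then primed 3 h with 1 µg/mL LPS in Opti-MEM. Compound applied for 40 min, followed by 40 min with 10 µM nigericin. IL-1β in supernatant measured by ELISA.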

[1] = test system: IL-1β in human PBMC cells; assay: Inhibitory activity on IL-1β in human PBMC cells (LPS + Nigericin, ELISA); type: cell-based
Method: 2. Determination of inhibitory activity of compounds on IL-1β in human PBMC cells
Human peripheral blood mononuclear cells (PBMCs) were taken and cultured overnight in RPMI 1640 culture medium containing 10% FBS and antibiotics before stimulation. On the second day, the culture medium was replaced with a serum-reduced culture medium, the grown cells were stimulated for 3 h with LPS at a working concentration of 1 µg/mL, stimulated for 40 min with a drug, and then stimulated for 40 min with Nigericin at a concentration of 10 µM, the cell supernatant was harvested, and the yield of IL-1β was detected by ELISA.
The experimental results are shown in Table 3: Table 3 Inhibitory effect of compounds on IL-1β in PBMC cells

[2] = Pharmacokinetic evaluation in Balb/c mice; type: in vivo; settings: Balb/c mice; for AUC(0-t): read-out: AUC(0-t); for Cmax: read-out: Cmax; for half-life: read-out: T1/2 (converted)
LPS-induced mice = assay: LPS-induced mouse model, survival; type: in vivo, Balb/c mice; settings: for 72h Survival rate: 1 h before 10 mg/kg LPS i.p.
[3] = molecular target: T2, hERG potassium ion channel (Homo sapiens, UniProt Q12809)
Method: (§1) Inhibition experiment of compounds on hERG potassium ion channel
(§2) Cell culture and treatment: CHO cells stably expressing hERG were cultured in cell culture flasks and incubated in a 5% CO2 incubator at 37°C. When a cell density reached 60%-80%, the cell culture medium was aspirated, washed once with PBS, and then digested with Detachin. After digestion, the grown cells were neutralized in the cell culture medium, and then centrifuged, the supernatant was aspirated, the cell culture medium was added again to resuspend the grown cells, and the cell density was adjusted to 2-5×10^6 cells/mL for later use.
(§3) Compound preparation: the compound stock solution was diluted in 100% DMSO, that is, 10 µL compound stock solution was serially diluted in 20 µL DMSO by 3 folds to obtain six concentrations. Six concentrations of the compound (4 µL for each concentration) were diluted in 396 µL extracellular fluid by 100 folds to obtain six intermediate concentrations. Six intermediate concentrations of the compound (80 µL for each concentration) were diluted in 320 µL extracellular fluid by 5 folds to obtain final concentrations to be tested. […] DMSO in a final test concentration was not more than 0.2%, and DMSO at this concentration had no effect on the hERG potassium channel. The entire dilution process for compound preparation was performed using Bravo instrument.
(§4) Electrophysiological recording process: the processes of single-celled high-impedance sealing and whole-cell mode formation were all automatically completed by Qpatch instrument, under the whole-cell recording mode, the cells were clamped at -80 mV, before 5-second + 40 mV depolarization stimulus, the cells were given 50-millisecond - 50 mV pre-voltage, followed by repolarization to -50 mV for 5 seconds, and then returning to -80 mV. The voltage stimulus was given every 15 seconds, after 2 minutes of recording, extracellular fluid was recorded for 5 min, and then a drug was administrated, started from a lowest test concentration, each test concentration of the compound was given for 2.5 minutes, after all concentrations were given consecutively, a positive control compound Cisapride (3 µM) was given. At least 3 cells were tested for each concentration (n≥3).
(§5) Data processing: data analysis and processing were performed using GraphPad Prism 5.0 and Excel software. IC50 values of the compounds were calculated by fitting with the following equation using GraphPad Prism 5 software: Y = Bottom + (Top−Bottom)/(1+10^(∧)((LogIC50−X)*HillSlope)); [formula] where X is the Log value of the test sample concentration, Y is an inhibition percentage at a corresponding concentration, and Bottom and Top are the minimum and maximum inhibition percentages, respectively.

[4] = In vivo brain-to-plasma ratio in mice; settings: for Brain / Plasma: male mice, oral 10 mg/kg
Method: Evaluation of in vivo brain-to-plasma ratio of compound
Experimental purpose: to obtain the brain-to-plasma ratio of the compound
Experimental protocol: the brain-to-plasma ratio of the compound was investigated by monitoring the content of the compound in mouse brain and plasma.
Experimental procedure: the compound was weighed, followed by adding a small amount of DMSO and adding a sodium chloride solution for injection, to prepare a 10 mg · mL^-1 compound solution for administration. Male mice were orally administered at 10 mg · kg^-1, and whole plasma and whole brain tissue were sampled at 1 h and 6 h after administration (n=3). […] A centrifuge tube was weighed as M1, the centrifuge tube containing the whole brain tissue was weighed as M2, the centrifuge tube containing water for homogenization was weighed as M3, and the centrifuge tube after the removal of 30 µL homogenate was weighed as M4.
Standard curve range: 10-10,000 ng·mL^-1. Content of drug in brain = measured value × 0.03 × (M3−M1)/[(M2−M1)×(M3−M4)].

[5] = In vivo distribution of cerebrospinal fluid and plasma; settings: intravenous 5 mg/kg, n=1
Method: Evaluation of in vivo distribution of cerebrospinal fluid and plasma after compound administration
Experimental procedure: the compound was weighed, followed by adding a small amount of DMSO and then adding a sodium chloride solution for injection, to prepare a 5 mg·mL^-1 compound solution for administration. […] Standard curve range: 1-1000 ng·mL^-1.

[6] = molecular target: T2, hERG potassium ion channel; assay: Inhibition of hERG potassium ion channel (CHO cells stably expressing hERG, Qpatch)
Method: as §1, §2, §3, §4, §5

[7] = 50 mg/kg, First cage (6 mice for Compound 3, 5 mice for Compound 4)
[8] = 50 mg/kg, Second cage (6 mice for Compound 3, 5 mice for Compound 4)

T2 sequence (Q12809 whole entry): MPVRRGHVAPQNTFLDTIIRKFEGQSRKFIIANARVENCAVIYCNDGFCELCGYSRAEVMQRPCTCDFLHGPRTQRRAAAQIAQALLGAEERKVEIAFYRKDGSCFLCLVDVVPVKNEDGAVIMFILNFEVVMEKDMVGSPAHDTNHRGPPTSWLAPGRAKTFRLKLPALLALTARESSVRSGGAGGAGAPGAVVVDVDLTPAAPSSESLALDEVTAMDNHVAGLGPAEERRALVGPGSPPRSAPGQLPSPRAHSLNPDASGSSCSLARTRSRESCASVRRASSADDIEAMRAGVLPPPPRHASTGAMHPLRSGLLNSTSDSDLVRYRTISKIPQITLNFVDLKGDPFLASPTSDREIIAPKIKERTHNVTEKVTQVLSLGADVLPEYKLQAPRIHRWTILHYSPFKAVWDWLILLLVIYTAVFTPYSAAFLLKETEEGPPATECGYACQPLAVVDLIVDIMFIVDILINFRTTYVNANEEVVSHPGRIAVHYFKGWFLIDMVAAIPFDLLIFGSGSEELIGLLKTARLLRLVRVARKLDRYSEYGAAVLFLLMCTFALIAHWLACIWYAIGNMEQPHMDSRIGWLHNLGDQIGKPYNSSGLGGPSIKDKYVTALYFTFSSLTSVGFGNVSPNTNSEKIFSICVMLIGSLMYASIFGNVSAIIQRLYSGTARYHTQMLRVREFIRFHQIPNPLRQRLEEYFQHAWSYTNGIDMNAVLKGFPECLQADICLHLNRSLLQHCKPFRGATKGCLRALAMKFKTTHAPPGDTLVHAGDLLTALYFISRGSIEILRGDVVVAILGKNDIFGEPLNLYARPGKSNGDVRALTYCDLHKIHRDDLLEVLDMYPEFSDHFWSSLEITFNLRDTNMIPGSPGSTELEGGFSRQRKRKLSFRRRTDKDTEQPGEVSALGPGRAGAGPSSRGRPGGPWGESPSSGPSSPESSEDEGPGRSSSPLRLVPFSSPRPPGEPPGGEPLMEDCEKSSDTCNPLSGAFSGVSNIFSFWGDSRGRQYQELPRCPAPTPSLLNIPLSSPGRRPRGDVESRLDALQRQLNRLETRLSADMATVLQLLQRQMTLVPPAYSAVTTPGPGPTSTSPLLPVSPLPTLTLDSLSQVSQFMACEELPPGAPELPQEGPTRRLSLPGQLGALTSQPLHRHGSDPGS
T1 sequence (Q96P20 whole entry): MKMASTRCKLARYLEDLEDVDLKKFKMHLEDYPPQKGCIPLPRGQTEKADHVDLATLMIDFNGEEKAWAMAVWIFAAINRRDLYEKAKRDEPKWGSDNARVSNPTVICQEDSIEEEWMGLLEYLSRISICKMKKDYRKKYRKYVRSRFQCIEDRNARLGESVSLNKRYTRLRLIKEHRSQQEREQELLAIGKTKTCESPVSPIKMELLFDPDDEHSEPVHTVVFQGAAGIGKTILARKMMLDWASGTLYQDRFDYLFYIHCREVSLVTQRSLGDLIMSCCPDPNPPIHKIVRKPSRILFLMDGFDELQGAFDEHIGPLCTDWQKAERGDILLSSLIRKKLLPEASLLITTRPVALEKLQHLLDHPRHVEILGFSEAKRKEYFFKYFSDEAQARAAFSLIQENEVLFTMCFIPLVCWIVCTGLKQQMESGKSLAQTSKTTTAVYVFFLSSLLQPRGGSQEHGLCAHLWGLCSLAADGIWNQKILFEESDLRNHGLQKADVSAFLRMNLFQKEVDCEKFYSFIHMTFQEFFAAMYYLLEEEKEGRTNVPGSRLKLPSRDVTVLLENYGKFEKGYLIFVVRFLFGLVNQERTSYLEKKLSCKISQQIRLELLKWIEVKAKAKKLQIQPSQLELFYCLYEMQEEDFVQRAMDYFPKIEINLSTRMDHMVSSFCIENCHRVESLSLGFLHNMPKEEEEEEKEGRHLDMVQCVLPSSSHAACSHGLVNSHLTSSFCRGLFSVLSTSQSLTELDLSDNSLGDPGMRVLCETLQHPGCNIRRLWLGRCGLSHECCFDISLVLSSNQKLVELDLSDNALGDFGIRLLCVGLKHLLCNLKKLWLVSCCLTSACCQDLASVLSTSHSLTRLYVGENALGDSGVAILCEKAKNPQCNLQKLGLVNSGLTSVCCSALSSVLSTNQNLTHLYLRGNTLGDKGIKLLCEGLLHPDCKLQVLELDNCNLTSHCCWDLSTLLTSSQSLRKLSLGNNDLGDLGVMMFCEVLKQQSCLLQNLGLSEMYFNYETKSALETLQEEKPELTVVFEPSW

`CCN1CCC[C@@H](Nc2nnc(-c3ccc4sccc4c3O)n(C)c2=O)C1` [Compound 3, (R)-6-((1-ethylpiperidin-3-yl)amino)-3-(4-hydroxybenzo[b]thiophen-5-yl)-4-methyl-1,2,4-tria zin-5(4H)-ketone] showed an IC50 (NLRP3 inflammasome) of 2.11 nM, an IC50 ([1]; Homo sapiens, PBMC) of 1.23 nM and an F ([2]; 5 mg/kg PO vs 5 mg/kg IV) of 81.05%. It also gave a clearance ([2]; mouse, in vivo, 5 mg/kg, IV) of 9.67 mL/min/kg, an AUC(0-t) ([2]; mouse, in vivo, 5 mg/kg, IV) of 8300 ng·h/mL and a Cmax ([2]; mouse, in vivo, 5 mg/kg, IV) of 1990 ng/mL. It also gave a half-life ([2]; mouse, in vivo, 5 mg/kg, IV) of 5.4 h, a Vd ([2]; mouse, in vivo, 5 mg/kg, IV, read-out: Vdss) of 4.51 L/kg and an AUC(0-t) ([2]; mouse, in vivo, 5 mg/kg, PO) of 6730 ng·h/mL. The Cmax ([2]; mouse, in vivo, 5 mg/kg, PO) was 1010 ng/mL, the half-life ([2]; mouse, in vivo, 5 mg/kg, PO) was 4.9 h and the “72h Survival rate” value (LPS-induced mice; 25 mg/kg oral) was 90%. For the same molecule, the “survival status of mice (mice alive) 12h” value (LPS-induced mice; 25 mg/kg, First cage (5 mice)) was 5, the “survival status of mice (mice alive) 24h” value (LPS-induced mice; 25 mg/kg, First cage (5 mice)) was 5 and the “survival status of mice (mice alive) 36h” value (LPS-induced mice; 25 mg/kg, First cage (5 mice)) was 5. For the same molecule, the “survival status of mice (mice alive) 48h” value (LPS-induced mice; 25 mg/kg, First cage (5 mice)) was 4, the “survival status of mice (mice alive) 72h” value (LPS-induced mice; 25 mg/kg, First cage (5 mice)) was 4 and the “survival status of mice (mice alive) 12h” value (LPS-induced mice; 25 mg/kg, Second cage (5 mice)) was 5. The “survival status of mice (mice alive) 24h” value (LPS-induced mice; 25 mg/kg, Second cage (5 mice)) was 5, the “survival status of mice (mice alive) 36h” value (LPS-induced mice; 25 mg/kg, Second cage (5 mice)) was 5 and the “survival status of mice (mice alive) 48h” value (LPS-induced mice; 25 mg/kg, Second cage (5 mice)) was 5. The “survival status of mice (mice alive) 72h” value (LPS-induced mice; 25 mg/kg, Second cage (5 mice)) was 5, the “72h Survival rate” value (LPS-induced mice; 50 mg/kg oral) was 92% and the “survival status of mice (mice alive) 12h” value (LPS-induced mice; [7]) was 6. The “survival status of mice (mice alive) 24h” value (LPS-induced mice; [7]) was 6, the “survival status of mice (mice alive) 36h” value (LPS-induced mice; [7]) was 6 and the “survival status of mice (mice alive) 48h” value (LPS-induced mice; [7]) was 6. For the same molecule, the “survival status of mice (mice alive) 72h” value (LPS-induced mice; [7]) was 6, the “survival status of mice (mice alive) 12h” value (LPS-induced mice; [8]) was 6 and the “survival status of mice (mice alive) 24h” value (LPS-induced mice; [8]) was 6. The “survival status of mice (mice alive) 36h” value (LPS-induced mice; [8]) was 5, the “survival status of mice (mice alive) 48h” value (LPS-induced mice; [8]) was 5 and the “survival status of mice (mice alive) 72h” value (LPS-induced mice; [8]) was 5. The “inhibitory effects on the hERG potassium ion channel (conclusion in words)” value [3] was “Conclusion: compounds 3, 4, 5, 9, 16, 17, 24, 30, 40, 41, 42, 43, 54 and others have weak inhibitory effects on the hERG potassium ion channel, having weaker inhibitory effect than the reference compound Ref-1”, the Brain ([4]; 1 h) was 761 ng/g and the Plasma ([4]; 1 h) was 2082 ng/mL. The Brain ([4]; 6 h) was 104 ng/g, the Plasma ([4]; 6 h) was 312 ng/mL and the Kp at 1 h ([4]; mouse, brain, po, 10 mg/kg) was 0.36. It also gave a Kp at 6 h ([4]; mouse, brain, po, 10 mg/kg) of 0.33, a Cerebrospinal fluid ([5]; 0.25h) of 79 ng/g and a Plasma ([5]; 0.25h) of 781 ng/mL. The Cerebrospinal fluid ([5]; 2h) was 15 ng/g, the Plasma ([5]; 2h) was 185 ng/mL and the “20 uM Inhibition ratio” value [6] was 38.23%.
For `CC(C)(O)c1coc(S(=O)(=O)NC(=O)Nc2c3c(cc4c2CCC4)CCC3)c1` [MCC950, reference compound], the IC50 ([1]; human PBMC, LPS 1 µg/mL 3 h, drug 40 min, Nigericin 10 µM 40 min, IL-1β ELISA, read-out: IC50) was 7.81 nM, the “72h Survival rate” value (LPS-induced mice; 25 mg/kg oral) was 60% and the “survival status of mice (mice alive) 12h” value (LPS-induced mice; 25 mg/kg, First cage (5 mice)) was 5. The “survival status of mice (mice alive) 24h” value (LPS-induced mice; 25 mg/kg, First cage (5 mice)) was 5, the “survival status of mice (mice alive) 36h” value (LPS-induced mice; 25 mg/kg, First cage (5 mice)) was 4 and the “survival status of mice (mice alive) 48h” value (LPS-induced mice; 25 mg/kg, First cage (5 mice)) was 4. The “survival status of mice (mice alive) 72h” value (LPS-induced mice; 25 mg/kg, First cage (5 mice)) was 4, the “survival status of mice (mice alive) 12h” value (LPS-induced mice; 25 mg/kg, Second cage (5 mice)) was 5 and the “survival status of mice (mice alive) 24h” value (LPS-induced mice; 25 mg/kg, Second cage (5 mice)) was 4. For the same molecule, the “survival status of mice (mice alive) 36h” value (LPS-induced mice; 25 mg/kg, Second cage (5 mice)) was 4, the “survival status of mice (mice alive) 48h” value (LPS-induced mice; 25 mg/kg, Second cage (5 mice)) was 2 and the “survival status of mice (mice alive) 72h” value (LPS-induced mice; 25 mg/kg, Second cage (5 mice)) was 2.
